Consider 20 compounds from patent publication US20240246964A1 (Arbutus Biopharma Corporation, priority 2021, published 2024).

The target of assay [1] is PD-L1 His protein / PD-1 Fc protein (Homo sapiens (Human), UniProt Q9NZQ7). The assay is described as follows: HTRF Assay (PD-1/PD-L1 interaction). The conditions noted are these: PD-L1 His 6 nM, PD-1 Fc 6 nM. The format is binding.
Another assay concerns the target human PD-L1 (Homo sapiens (Human), UniProt Q9NZQ7). The experiment in a line: T cell activation luciferase reporter cell culture system (T Cell Activation Assay). The format is cell-based. The settings on record: luciferase reporter assay; PD-L1 aAPC/CHO-K1 cells with PD-1 effector Jurkat T cells. On the technique in general: Reporter assays use an easily measured gene product as a stand-in for the process of interest.

human PD-L1, sequence (Q9NZQ7 19-290): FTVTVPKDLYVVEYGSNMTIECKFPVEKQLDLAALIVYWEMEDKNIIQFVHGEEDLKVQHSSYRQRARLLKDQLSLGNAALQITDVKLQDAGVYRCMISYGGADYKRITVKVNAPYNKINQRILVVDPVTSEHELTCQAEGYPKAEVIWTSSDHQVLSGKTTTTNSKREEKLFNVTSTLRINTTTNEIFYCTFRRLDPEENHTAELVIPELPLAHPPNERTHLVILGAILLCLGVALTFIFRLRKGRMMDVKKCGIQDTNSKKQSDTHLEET
PD-L1 His protein / PD-1 Fc protein, sequence (Q9NZQ7 19-238): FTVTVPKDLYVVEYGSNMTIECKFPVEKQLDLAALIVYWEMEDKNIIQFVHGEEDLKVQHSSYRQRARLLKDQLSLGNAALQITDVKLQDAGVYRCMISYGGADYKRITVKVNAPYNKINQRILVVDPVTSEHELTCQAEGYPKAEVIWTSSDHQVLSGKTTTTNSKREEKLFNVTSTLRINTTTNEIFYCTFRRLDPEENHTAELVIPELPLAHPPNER

In assay [1], `COc1nc(-c2cccc(-c3ccnc(-c4cc(OC)c5nc(CN6CC7(CC(O)C7)C6)nn5c4)c3Cl)c2Cl)ccc1CNC(C)C` [Compound 753, 2-((6-(3-Chloro-4-(2-chloro-3-(5-((isopropylamino)methyl)-6-methoxypyridin-2-yl)phenyl)pyridin-2-yl)-8-methoxy-[1,2,4]triazolo[1,5-a]pyridin-2-yl)methyl)-2-azaspiro[3.3]heptan-6-ol] returned a half-maximal inhibitory concentration (IC50) of 0.2 nM. This compound had a 50% effective concentration (EC50) at human PD-L1 of 87 nM.

In assay [1], `COc1cc(-c2nccc(-c3cccc(-c4ccc(CNC[C@@H]5CCC(=O)N5)c(OC)n4)c3Cl)c2Cl)ccc1C1=NCCN1` [Compound 179, (S)-5-((((6-(2-chloro-3-(3-chloro-2-(4-(4,5-dihydro-1H-imidazol-2-yl)-3-methoxyphenyl)pyridine-4-yl)phenyl)-2-methoxypyridin-3-yl)methyl)amino)methyl)pyridine1334ne-2-one] registered a concentration for half-maximal inhibition (IC50) of 2.45 nM. Further, the 50% effective concentration (EC50) at human PD-L1 amounted to 30.8 nM.

In turn, `COc1nc(-c2cccc(-c3ccnc(-c4cc(OC)c5nc(CNC6CCN(C(C)=O)CC6)nn5c4)c3Cl)c2Cl)ccc1CNC(C)C` [Compound 765, 1-(4-(((6-(3-Chloro-4-(2-chloro-3-(5-((isopropylamino)methyl)-6-methoxypyridin-2-yl)phenyl)pyridin-2-yl)-8-methoxy-[1,2,4]triazolo[1,5-a]pyridin-2-yl)methyl)amino)piperidin-1-yl)ethan-1-one] returned a half-inhibitory concentration (IC50) in assay [1] of 0.28 nM. Moreover, the EC50 at human PD-L1 stood at 1280 nM.

Regarding `CNCc1ccc(-c2cccc(-c3ccnc(-c4ccc(CNC(C)C)c(OC)c4)c3Cl)c2Cl)nc1OC` [Compound 211, N-(4-(3-chloro-4-(2-chloro-3-(6-methoxy-5-((methylamino)methyl)pyridin-2-yl)phenyl)pyridin-2-yl)-2-methoxybenzyl)propan-2-amine], the IC50 in assay [1] is 4.2 nM. Further, the midpoint of the response on human PD-L1, the EC50, lay at 56.2 nM.

For `COc1nc(-c2ccnc(-c3cccc(NC(=O)c4cn(C)c(=O)n(C)c4=O)c3Cl)c2Cl)ccc1CNC[C@H](C)O` [Compound 745, (S)—N-(2-Chloro-3-(3′-chloro-5-(((2-hydroxypropyl)amino)methyl)-6-methoxy-[2,4′-bipyridin]-2′-yl)phenyl)-1,3-dimethyl-2,4-dioxo-1,2,3,4-tetrahydropyrimidine-5-carboxamide], the IC50 in assay [1] was determined as 0.31 nM. On human PD-L1, this compound registered an EC50 of 372 nM.

The compound `COc1cc(-c2cccc(-c3ccnc(-c4cnc(CNC5CCN(C(C)=O)CC5)c(OC)c4)c3Cl)c2Cl)cnc1CNC1CCN(C(C)=O)CC1` [Compound 567, 1-(4-(((5-(3-(6′-(((1-acetylpiperidin-4-yl)amino)methyl)-3-chloro-5′-methoxy-[2,3′-bipyridin]-4-yl)-2-chlorophenyl)-3-methoxypyridin-2-yl)methyl)amino)piperidin-1-yl)ethan-1-one] had an IC50 in assay [1] of 17.7 nM. Further, at human PD-L1, the EC50 was not below 10000 nM.

Compound `CNCc1ccc(-c2cccc(-c3ccnc(-c4ccc(CN5CC6(CNC(=O)C6)C5)c(OC)c4)c3Cl)c2Cl)nc1OC` [Compound 213, 2-(4-(3-chloro-4-(2-chloro-3-(6-methoxy-5-((methylamino)methyl)pyridin-2-yl)phenyl)pyridin-2-yl)-2-methoxybenzyl)-2,6-diazaspiro[3.4]octan-7-one] showed a half-maximal inhibitory concentration (IC50) in assay [1] of 2.73 nM. The compound further showed an EC50 at human PD-L1 of 23.5 nM.

Regarding `COc1cc(-c2nccc(-c3cccc(-c4ccc(CN5CC(C(C)(C)O)C5)c(OC)n4)c3Cl)c2Cl)ccc1CN1CC(C(C)(C)O)C1` [Example 471, 2-(1-((6-(2-Chloro-3-(3-chloro-2-(4-((3-(2-hydroxypropan-2-yl)azetidin-1-yl)methyl)-3-methoxyphenyl)pyridin-4-yl)phenyl)-2-methoxypyridin-3-yl)methyl)azetidin-3-yl)propan-2-ol], in assay [1], the 50% inhibitory concentration (IC50) amounted to 4.63 nM. Besides, on human PD-L1, the EC50 came to 111 nM.

As for `COc1cc(-c2nccc(-c3cccc(-c4ccc5c(CN(C)C6CCN(C(C)=O)CC6)cn(C)c5n4)c3Cl)c2Cl)ccc1CN1CC2(C1)CN(C(C)=O)C2` [Compound 601, 1-(4-(((6-(3-(2-(4-((6-Acetyl-2,6-diazaspiro[3.3]heptan-2-yl)methyl)-3-methoxyphenyl)-3-chloropyridin-4-yl)-2-chlorophenyl)-1-methyl-1H-pyrrolo[2,3-b]pyridin-3-yl)methyl)(methyl)amino)piperidin-1-yl)ethan-1-one], half-maximal inhibition in assay [1] (IC50) was put at 0.23 nM. The EC50 on human PD-L1 came to 110 nM.

`COc1cc(-c2nccc(-c3cccc(-c4ccc5c(CN(C)C6CCN(C(C)=O)CC6)cn(C)c5n4)c3Cl)c2Cl)ccc1CN1CC2(CNC(=O)C2)C1` [Compound 603, 2-(4-(4-(3-(3-(((1-Acetylpiperidin-4-yl)(methyl)amino)methyl)-1-methyl-1H-pyrrolo[2,3-b]pyridin-6-yl)-2-chlorophenyl)-3-chloropyridin-2-yl)-2-methoxybenzyl)-2,6-diazaspiro[3.4]octan-7-one]: the 50% inhibitory concentration (IC50) in assay [1] stood at 0.52 nM. Further, the EC50 at human PD-L1 was 49.7 nM.

`COc1nc(-c2cccc(-c3ccnc(-c4ccc5c(CNC6CCN(C(C)=O)CC6)nn(C)c5c4)c3Cl)c2Cl)ccc1CNC1CCN(C(C)=O)CC1` [Example 263, 1-(4-(((6-(3-(2-(3-(((1-Acetylpiperidin-4-yl)amino)methyl)-1-methyl-1H-indazol-6-yl)-3-chloropyridin-4-yl)-2-chlorophenyl)-2-methoxypyridin-3-yl)methyl)amino)piperidin-1-yl)ethan-1-one] gave a half-inhibitory concentration (IC50) in assay [1] of 1.71 nM. This compound showed a concentration giving a half-maximal response (EC50) on human PD-L1 not below 10000 nM.

In turn, `COc1cc(-c2nccc(-c3cccc(-c4ccc(CNC5CCN(C(C)C)CC5)c(OC)n4)c3Cl)c2Cl)ccc1CNC1CCN(C(C)C)CC1` [Example 326, N-((6-(2-Chloro-3-(3-chloro-2-(4-(((1-isopropylpiperidin-4-yl)amino)methyl)-3-methoxyphenyl)pyridin-4-yl)phenyl)-2-methoxypyridin-3-yl)methyl)-1-isopropylpiperidin-4-amine] gave an IC50 in assay [1] of 4.23 nM. The EC50 on human PD-L1 came to 43 nM.

With `COc1cc(-c2nccc(-c3cccc(-c4ccc(CNC5CCN(C(C)=O)CC5)c(OC)n4)c3Cl)c2Cl)ccc1CNC1CCNCC1` [Example 417, 1-(4-(((6-(2-chloro-3-(3-chloro-2-(3-methoxy-4-((piperidin-4-ylamino)methyl)phenyl)pyridin-4-yl)phenyl)-2-methoxypyridin-3-yl)methyl)amino)piperidin-1-yl)ethan-1-one], in assay [1], the IC50 was determined as 3.67 nM. Besides, a half-maximal effect at human PD-L1 (EC50) was put at 58.3 nM.

Compound `COc1cc(-c2nccc(-c3cccc(NC(=O)c4ccc(CNC5CC6(C5)CN(C(C)=O)C6)cn4)c3Cl)c2Cl)ccc1CNC1CC2(C1)CN(C(C)=O)C2` (stereo not shown) [Example 706, 5-(((2-Acetyl-2-azaspiro[3.3]heptan-6-yl)amino)methyl)-N-(3-(2-(4-(((2-acetyl-2-azaspiro[3.3]heptan-6-yl)amino)methyl)-3-methoxyphenyl)-3-chloropyridin-4-yl)-2-chlorophenyl)picolinamide] returned an IC50 in assay [1] of 0.2 nM. At human PD-L1, this compound showed an EC50 of 72.6 nM.

For `COc1cc(-c2nccc(-c3cccc(-c4ccc(CNC[C@@H]5CCC(=O)N5)c(OC)n4)c3Cl)c2Cl)cc(F)c1CNCCCF` [Compound 147, (S)-5-((((6-(2-chloro-3-(3-chloro-2-(3-fluoro-4-(((3-fluoropropyl)amino)methyl)-5-methoxyphenyl)pyridin-4-yl)phenyl)-2-methoxypyridin-3-yl)methyl)amino)methyl)pyrrolidin-2-one], the IC50 in assay [1] came to 1.96 nM. This compound also returned a 50% effective concentration (EC50) at human PD-L1 of 42.7 nM.

In assay [1], `COc1cc(-c2nccc(-c3cccc(-c4ccc(CNC5CCOCC5)c(OC)n4)c3Cl)c2Cl)ccc1CN(C)C1CCOCC1` [Example 441, N-(4-(3-chloro-4-(2-chloro-3-(6-methoxy-5-(((tetrahydro-2H-pyran-4-yl)amino)methyl)pyridin-2-yl)phenyl)pyridin-2-yl)-2-methoxybenzyl)-N-methyltetrahydro-2H-pyran-4-amine] showed an IC50 of 5.61 nM. The midpoint of the response on human PD-L1, the EC50, lay at 149 nM.

`COc1cc(-c2nccc(-c3cccc(-c4ccc(CN5CC6(CNC(=O)C6)C5)c(OC)n4)c3Cl)c2Cl)cnc1CNC[C@@H]1CCC(=O)N1` [Compound 550, (S)-2-((6-(2-Chloro-3-(3-chloro-5′-methoxy-6′-((((5-oxopyrrolidin-2-yl)methyl)amino)methyl)-[2,3′-bipyridin]-4-yl)phenyl)-2-methoxypyridin-3-yl)methyl)-2,6-diazaspiro[3.4]octan-7-one] displayed an IC50 in assay [1] of 0.28 nM. The EC50 on human PD-L1 is 25 nM.

`COc1nc(-c2cccc(-c3nccc(-c4ccc(CN5CC[C@@H](O)C5)c(OC)n4)c3Cl)c2Cl)ccc1CN1CC[C@@H](O)C1` [Example 772, (R)-1-((3′-Chloro-2′-(2-chloro-3-(5-(((R)-3-hydroxypyrrolidin-1-yl)methyl)-6-methoxypyridin-2-yl)phenyl)-6-methoxy-[2,4′-bipyridin]-5-yl)methyl)pyrrolidin-3-ol] came in with an IC50 in assay [1] of 0.85 nM. At human PD-L1, the concentration giving a half-maximal response (EC50) came to 11.6 nM.

As for `COc1nc(-c2cccc(-c3ccnc(-c4cc(OC)c5nc(CN6CC7(COC7)C6)nn5c4)c3Cl)c2Cl)ccc1CNC1CCN(C(C)=O)CC1` [Example 698, 1-(4-(((6-(3-(2-(2-((2-Oxa-6-azaspiro[3.3]heptan-6-yl)methyl)-8-methoxy-[1,2,4]triazolo[1,5-a]pyridin-6-yl)-3-chloropyridin-4-yl)-2-chlorophenyl)-2-methoxypyridin-3-yl)methyl)amino)piperidin-1-yl)ethan-1-one], the IC50 in assay [1] was found to be 0.14 nM. The midpoint of the response at human PD-L1, the EC50, lay at 261 nM.

For `COc1cc(-c2nccc(-c3cccc(-c4ccc5c(CN(C)CCO)cn(C)c5n4)c3Cl)c2Cl)ccc1CNC[C@@H]1CCC(=O)N1` [Compound 101, (S)-5-(((4-(3-chloro-4-(2-chloro-3-(3-(((2-hydroxyethyl)(methyl)amino)methyl)-1-methyl-1H-pyrrolo[2,3-b]pyridin-6-yl)phenyl)pyridin-2-yl)-2-methoxybenzyl)amino)methyl)pyrrolidin-2-one], in assay [1], the IC50 was 0.5 nM. Also, on human PD-L1, a half-maximal response (EC50) required 31 nM.

The term IC50 denotes the point on the concentration scale where inhibition reaches its midpoint. A higher IC50 goes with lower potency. One may read the EC50 as the concentration needed to bring the measured effect to its halfway point.
